Assay [1] concerns pTau. Briefly: pTau assay (no method described). The format is cell-based.
For assay [2], the target named is GSK3β (Homo sapiens, UniProt P49841). Briefly: GSK3β kinase assay (Caliper LabChip3000 mobility shift, fluoresceinated peptide substrate). The format is biochemical. The following applies: 250 pM enzyme, 20 uM ATP, 1.5 uM peptide, 20 hours room temperature; first value of cell GSK3β/GSK3α; read-out: GSK3β (nM), IC50.
Assay [3] deals with GSK3α (Homo sapiens, UniProt P49840). Nature of the assay: GSK3α kinase assay (Caliper LabChip3000 mobility shift, fluoresceinated peptide substrate).
Experimental: The kinase assay was performed in V-bottom 384-well plates. […] The reaction was incubated at room temperature for 20 hours and terminated by adding 45 μl of 35 mM EDTA to each sample. The reaction mixture was analyzed on the Caliper LabChip3000 (Caliper, Hopkinton, Mass.) by electrophoretic separation of the unphosphorylated substrate and phosphorylated product. […] Compounds were dissolved at 10 mM in dimethylsulfoxide (DMSO) and evaluated at eleven concentrations. IC50 values were derived by non-linear regression analysis.

The values that follow come from patent US10752609B2, “GSK-3 inhibitors” (priority 2016, dated 2020).

Sequence of GSK3β (P49841 whole entry, species assumed): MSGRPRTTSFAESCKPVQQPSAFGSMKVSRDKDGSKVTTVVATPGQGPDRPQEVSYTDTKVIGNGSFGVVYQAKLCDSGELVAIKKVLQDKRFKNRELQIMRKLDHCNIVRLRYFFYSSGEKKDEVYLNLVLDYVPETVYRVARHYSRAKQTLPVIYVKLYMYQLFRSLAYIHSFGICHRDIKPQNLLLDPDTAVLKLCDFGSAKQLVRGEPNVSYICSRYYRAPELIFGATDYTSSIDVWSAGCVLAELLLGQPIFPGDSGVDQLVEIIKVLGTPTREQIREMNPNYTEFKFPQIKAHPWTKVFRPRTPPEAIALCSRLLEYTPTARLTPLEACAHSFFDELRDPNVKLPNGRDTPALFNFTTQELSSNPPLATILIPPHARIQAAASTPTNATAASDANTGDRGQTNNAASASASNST
Sequence of GSK3α (P49840 whole entry, species assumed): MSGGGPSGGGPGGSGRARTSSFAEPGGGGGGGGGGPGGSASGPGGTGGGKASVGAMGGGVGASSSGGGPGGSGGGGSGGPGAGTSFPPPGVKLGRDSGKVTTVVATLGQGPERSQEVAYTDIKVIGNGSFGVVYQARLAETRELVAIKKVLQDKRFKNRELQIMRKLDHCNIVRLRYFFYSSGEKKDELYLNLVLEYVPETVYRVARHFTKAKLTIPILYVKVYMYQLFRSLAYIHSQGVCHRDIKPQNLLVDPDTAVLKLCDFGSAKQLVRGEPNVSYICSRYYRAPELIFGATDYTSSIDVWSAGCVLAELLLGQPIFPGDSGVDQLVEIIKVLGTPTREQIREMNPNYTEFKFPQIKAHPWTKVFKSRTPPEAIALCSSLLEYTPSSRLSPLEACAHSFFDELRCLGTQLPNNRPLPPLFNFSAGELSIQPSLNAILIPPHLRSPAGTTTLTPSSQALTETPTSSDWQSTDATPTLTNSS

For the molecule `O=C(Nc1cnccc1OCC(F)(F)F)c1ccnc(Nc2ccc(Cl)cc2F)n1` [Example 61, 2-((4-Chloro-2-fluorophenyl)amino)-N-(4-(2,2,2-trifluoroethoxy)pyridin-3-yl)pyrimidine-4-carboxamide], the figures for the half-inhibitory concentration (IC50) in assay [1], in assay [2] and in assay [3] were 230 nM, 0.72 nM and 0.39 nM, respectively.
Take `COc1ccc(Nc2nccc(C(=O)Nc3cnccc3OCC(F)(F)F)n2)cc1F` [Example 62, 2-((3-Fluoro-4-methoxyphenyl)amino)-N-(4-(2,2,2-trifluoroethoxy)pyridin-3-yl)pyrimidine-4-carboxamide]: the IC50 is 230 nM in assay [1], 0.08 nM in assay [2] and 0.09 nM in assay [3].
For `O=C(Nc1cnccc1OCC(F)(F)F)c1ccnc(Nc2ccc(OC(F)F)nc2)n1` [Example 63, 2-((6-(Difluoromethoxy)pyridin-3-yl)amino)-N-(4-(2,2,2-trifluoroethoxy)pyridin-3-yl)pyrimidine-4-carboxamide], in that order: 3 nM, 0.18 nM and 0.13 nM.
In the case of `O=C(Nc1cnccc1OCC(F)(F)F)c1ccnc(Nc2ccc(C(F)(F)F)nc2)n1` [Example 64, N-(4-(2,2,2-Trifluoroethoxy)pyridin-3-yl)-2-((6-(trifluoromethyl)pyridin-3-yl)amino)pyrimidine-4-carboxamide], the results for the IC50 in assay [1], in assay [2] and in assay [3] were 8.5 nM, 0.2 nM and 0.19 nM, respectively.
Regarding `CC(C)OCCCNc1nccc(C(=O)Nc2cnccc2OCC(F)(F)F)n1` [Example 65, 2-((3-Isopropoxypropyl)amino)-N-(4-(2,2,2-trifluoroethoxy)pyridin-3-yl)pyrimidine-4-carboxamide], the IC50 in assay [1] was found to be 86 nM; in assay [2], 2 nM; in assay [3], 1.4 nM.
As for `N#Cc1ccc(Nc2nccc(C(=O)Nc3cncnc3OCC(F)(F)F)n2)cc1` [Example 66, 2-((4-Cyanophenyl)amino)-N-(4-(2,2,2-trifluoroethoxy)pyrimidin-5-yl)pyrimidine-4-carboxamide], the IC50 in assay [1] amounted to 22 nM; in assay [2], 1 nM; in assay [3], 0.67 nM.
Turning to `O=C(Nc1cncnc1OCC(F)(F)F)c1ccnc(Nc2ccc(Cl)cc2)n1` [Example 67, 2-((4-Chlorophenyl)amino)-N-(4-(2,2,2-trifluoroethoxy)pyrimidin-5-yl)pyrimidine-4-carboxamide], the IC50 in assay [1] came to 90 nM; in assay [2] it was 0.97 nM; in assay [3] it was 0.36 nM.
Take `O=C(Nc1cncnc1OCC(F)(F)F)c1ccnc(Nc2ccc(C(F)(F)F)cc2)n1` [Example 68, N-(4-(2,2,2-Trifluoroethoxy)pyrimidin-5-yl)-2-((4-(trifluoromethyl)phenyl)amino)pyrimidine-4-carboxamide]: the IC50 amounted to 90 nM in assay [1], 0.73 nM in assay [2] and 1.3 nM in assay [3].
The matching figures for `O=C(Nc1cncnc1OCC(F)(F)F)c1ccnc(Nc2ccc(OC(F)(F)F)cc2)n1` [Example 69, N-(4-(2,2,2-Trifluoroethoxy)pyrimidin-5-yl)-2-((4-(trifluoromethoxy)phenyl)amino)pyrimidine-4-carboxamide]: 160 nM, 0.56 nM and 0.6 nM.
For `O=C(Nc1cncnc1OCC(F)(F)F)c1ccnc(Nc2ccc(Cl)cc2F)n1` [Example 71, 2-((4-Chloro-2-fluorophenyl)amino)-N-(4-(2,2,2-trifluoroethoxy)pyrimidin-5-yl)pyrimidine-4-carboxamide], in that order: 1000 nM, 8 nM and 4.2 nM.
Turning to `O=C(Nc1cncnc1OCC(F)(F)F)c1ccnc(Nc2cc(F)c(Cl)cc2F)n1` [Example 72, 2-((4-Chloro-2,5-difluorophenyl)amino)-N-(4-(2,2,2-trifluoroethoxy)pyrimidin-5-yl)pyrimidine-4-carboxamide], the IC50 in assay [1] amounted to 290 nM; in assay [2], 1.6 nM; in assay [3], 1.1 nM.
`O=C(Nc1cncnc1OCC(F)(F)F)c1ccnc(Nc2ccc(OC(F)F)nc2)n1` [Example 73, 2-((6-(Difluoromethoxy)pyridin-3-yl)amino)-N-(4-(2,2,2-trifluoroethoxy)pyrimidin-5-yl)pyrimidine-4-carboxamide]: the IC50 turned out to be 22 nM in assay [1], 0.26 nM in assay [2] and 0.18 nM in assay [3].
For the molecule `CC(C)OCCCNc1nccc(C(=O)Nc2cncnc2OCC(F)(F)F)n1` [Example 74, 2-((3-Isopropoxypropyl)amino)-N-(4-(2,2,2-trifluoroethoxy)pyrimidin-5-yl)pyrimidine-4-carboxamide], the IC50 in assay [1] was 890 nM; in assay [2], 5.9 nM; in assay [3], 4.5 nM.
In the case of `O=C(Nc1cncnc1Nc1ccccc1)c1ccnc(Nc2ccccc2)n1` [Example 75, 2-(Phenylamino)-N-(4-(phenylamino)pyrimidin-5-yl)pyrimidine-4-carboxamide], the IC50 in assay [1] turned out to be 4500 nM; in assay [2] it was 48 nM; in assay [3], 33 nM.
For `O=C(Nc1cncnc1OCC(F)(F)F)c1ccnc(Nc2ccccc2)n1` [Example 76, 2-(Phenylamino)-N-(4-(2,2,2-trifluoroethoxy)pyrimidin-5-yl)pyrimidine-4-carboxamide], in that order: 77 nM, 1.1 nM and 0.56 nM.
In the case of `COc1ccc(Nc2nccc(C(=O)Nc3cncnc3OCC(F)(F)F)n2)cc1` [Example 77, 2-((4-Methoxyphenyl)amino)-N-(4-(2,2,2-trifluoroethoxy)pyrimidin-5-yl)pyrimidine-4-carboxamide], the IC50 in assay [1] was 100 nM; in assay [2], 0.79 nM; in assay [3], 0.47 nM.
On to `COc1ccc(Nc2nccc(C(=O)Nc3cncnc3Nc3ccc(OC)cc3)n2)cc1` [Example 78, 2-Amino-N-(6-methylpyridin-3-yl)pyrimidine-4-carboxamide 2-((4-methoxyphenyl)amino)-N-(4-((4-methoxyphenyl)amino)pyrimidin-5-yl)pyrimidine-4-carboxamide], for which the IC50 amounted to 2900 nM in assay [1], 28 nM in assay [2] and 15 nM in assay [3].
On to `O=C(Nc1cncnc1NCC1CC1)c1ccnc(Nc2ccccc2)n1` [Example 79, N-(4-((Cyclopropylmethyl)amino)pyrimidin-5-yl)-2-(phenylamino)pyrimidine-4-carboxamide], for which the IC50 in assay [1] turned out to be 8000 nM; in assay [2] it was 160 nM; in assay [3], 98 nM.
For the molecule `O=C(Nc1cnccc1C1CCOCC1)c1ccnc(Nc2ccc(OC(F)F)nc2)n1` [Example 80, 2-((6-(Difluoromethoxy)pyridin-3-yl)amino)-N-(4-(tetrahydro-2H-pyran-4-yl)pyridin-3-yl)pyrimidine-4-carboxamide], the IC50 in assay [1] came to 86 nM; in assay [2], 2.4 nM; in assay [3], 0.65 nM.
On to `O=C(Nc1cnccc1CN1CCCC1)c1ccnc(Nc2ccc(OC(F)F)nc2)n1` [Example 81, 2-((6-(Difluoromethoxy)pyridin-3-yl)amino)-N-(4-(pyrrolidin-1-ylmethyl)pyridin-3-yl)pyrimidine-4-carboxamide], for which the IC50 in assay [1] is 520 nM; in assay [2], 9.8 nM; in assay [3], 6.6 nM.

A word on the IC50: it is the concentration that inhibits the measured activity by half.
